In US10967038B2, “Use of cell-permeable peptide inhibitors of the JNK signal transduction pathway for the treatment of chronic or non-chronic inflammatory eye diseases” (priority 2010, dated 2021):

How the values were obtained:
Format in all cases: in vivo, rat
[1] = tested on: phospho-p44/42 MAPK (Erk1/2); assay: Immunohistochemistry of phospho-p44/42 MAPK (Erk1/2) in EIU eyes; conditions: 24 h
Procedure: (§1) A second set of experiment was designed to evaluate the anti-inflammatory effect of the JNK-inhibitor (poly-)peptide of SEQ ID NO: 11 at the cellular and tissue level as well as the biodistribution of this molecule 24 hours after administration. Rats were randomized into 11 experimental groups. 6 groups of rats with uveitis: untreated uveitic rats, rats injected intravenously with NaCl or the JNK-inhibitor (poly-)peptide of SEQ ID NO: 11 and rats injected intravitreously with the vehicle, the JNK-inhibitor (poly-)peptide of SEQ ID NO: 11 or dexamethasone. The 5 additional groups without uveitis were: untreated healthy rats, rats treated by NaCl IV or the JNK-inhibitor (poly-)peptide of SEQ ID NO: 11 IV and rats injected IVT with NaCl or the JNK-inhibitor (poly-)peptide of SEQ ID NO: 11. Three eyes from separate rats were collected per group and used for immunohistochemistry.
To analyze the ERK and p38 MAPK pathways, blots were sequentially incubated with a rabbit phospho-p44/42 MAPK (Erk1/2) (Thr202/Tyr204) (4370) primary antibody (or rabbit phospho-p38 MAPK (Thr180/Tyr182) (9215) antibody) and a horseradish peroxidase-conjugated goat anti-rabbit IgG (H+L) (PI-1000—Vector Laboratories, Clinisciences, Montrouge, France) secondary antibody at dilution 1:5000. […]

[2] = Ocular biodistribution by immunohistochemistry against SEQ ID NO: 11
Procedure: For immunohistochemistry, eyeballs were collected and fixed for 1 h at room temperature in phosphate buffered saline (PBS) containing 4% paraformaldehyde before being rinsed overnight in PBS. The next day, samples were embedded and frozen in optimal cutting-temperature (OCT) compound (Tissue-Tek®, Sakura Finetek, Zoeterwoude, Netherland) and stored at −80° C. Frozen antero-posterior sections of eyes (10 μm thick) were performed at the optic nerve level using a cryostat (Leica CM 3050S, Rueil-Malmaison, France) and mounted on super-frost slides for immunohistochemical analysis.
as §1
Immunostaining of the JNK-inhibitor (poly-)peptide of SEQ ID NO: 11 was performed on healthy and uveitic eyes to study its ocular biodistribution after systemic or local administration. Briefly, sections were permeabilized as described above before being sequentially incubated with an anti-SEQ ID NO: 11 purified rabbit IgG and a secondary Alexa 594 (red)-conjugated goat anti-rabbit IgG (Invitrogen, Cergy Pontoise, France) diluted 1:100 and 1:250 in PBS respectively. Immunostaining of untreated healthy and uveitic eyes were used as negative controls. Nuclei were stained with DAPI before mounting and observation.

[3] = tested on: inducible nitric oxide synthase (iNOS); assay: iNOS expression in ocular tissues (immunohistochemistry, semi-quantitative RT-PCR); conditions: IV or IVT, 24 h, vs control eyes
Procedure: Retinas and RPE/choroid/sclera complexes were also collected at 24 hours to analyze iNOS mRNA levels by RT-PCR and c-Jun phosphorylation state by Western-Blot. Tissues were collected only from eyes treated by IV (intravenous) injection of vehicle, IV injection of the JNK-inhibitor (poly-)peptide of SEQ ID NO: 11, IVT (intravitreal) injection of vehicle and IVT injection of the JNK-inhibitor (poly-)peptide of SEQ ID NO: 11 (n=2 eyes per condition collected from separate rats). Eyes were selected so that their EIU clinical score was representative of the mean of the experimental group they belong to, i.e 3 for eyes treated by IV and IVT injection of vehicle and 2 for eyes treated by IV or IVT injection of the JNK-inhibitor (poly-)peptide of SEQ ID NO: 11.
To characterize the cellular infiltrate, sections were double-stained with ED1 and iNOS. […] After staining nuclei with DAPI (Sigma-Aldrich, Saint-Quentin Fallavier, France), sections were mounted in PBS/Glycerol (1/1) and observed by fluorescence photomicroscopy (FXA, Microphot, Nikon, Melville, USA). […] ED1 positive cells and polymorphonuclear cells, identified by the shape of their nuclei stained with DAPI, were quantified on histological sections. […] Results were expressed as mean±standard error of the mean (SEM). […]

[4] = tested on: chemokines/cytokines; assay: Chemokine/Cytokine Multiplex Assay on ocular fluids and sera
Procedure: Aqueous humor and vitreous were collected and pooled from each enucleated eye. Ocular fluids were immediately centrifuged and the cell-free fractions were collected and frozen at −20° C. before analysis by Multiplex assay. Blood samples were first clotted at room temperature for 2 hours and then at 4° C. overnight. Serum was collected, centrifuged and the clear supernatant was collected and frozen at −20° C. before Multiplex analysis.
In a first set of experiment, 70 rats were randomized into 14 experimental groups with 5 rats per group. Uveitis was induced in each group and rats were killed 6 hours (4 groups), 24 hours (6 groups) and 48 hours (4 groups) after LPS challenge. For each time point tested (i.e. 6 h, 24 h and 48 h), rats treated by intravenous or intravitreous injections of vehicle (NaCl 0.9%) or the JNK-inhibitor (poly-)peptide of SEQ ID NO: 11 were compared to untreated control uveitic rats. Two additional groups, treated by intravenous injection of vehicle and intravitreal injection of dexamethasone were used at 24 hours. Clinical ocular inflammation was recorded only at 24 hours (see Scoring of Endotoxin-Induced Uveitis (EIU) section). At each time point, intraocular fluids from each eye (n=10 per group) and serum from each animal (n=5 per group) were used for Chemokine/Cytokine Multiplex Assay.
Intraocular fluids (diluted to obtain a final volume of 25 μL) and sera (25 μL of 1:5 dilution) were subjected to multiplex bead analysis. This method uses microspheres as the solid support for immunoassays12 and allows the titration of a greater number of cytokines with increased sensitivity than occurs with ELISA.13 For each sample, seventeen analytes were quantified simultaneously using the rat Cytokine/Chemokine-17plex kit (Milliplex Map Kit, Millipore, Saint-Quentin-en-Yvelines, France) according to the manufacturer's instructions: Chemokines MCP-1/CCL2, MIP-1α/CCL3, RANTES/CCL5, IP-10/CXCL10 (IFN-inducible protein-10) and GRO/KC; proinflammatory mediators IL-1[…], IL-18 and TNF-[…]; Th1/Th2/Th17 cytokines IL-2 and IFN-[…]/IL-4, IL-5, IL-6, IL-10 and IL-13/IL-17. The assay was performed in a 96-well filter plate and standard curves for each cytokine were generated with a Rat Cytokine Standard provided in the kit. All incubation steps were performed under medium orbital agitation and in the dark to protect the beads from light. Data acquisition and analysis were performed with the manager software version 4.1 (Bioplex; Bio-Rad) with four or five logistic parameters for standard curves. Detection thresholds for all the analytes were estimated around 1 to 10 pg/mL.

[5] = ocular fluids, IV injection, at 6 and 24 hours
[6] = ocular fluids, IV injection, at different time points
[7] = ocular fluids, IVT injection, at 6 hours, vs vehicle IVT
[8] = ocular fluids, IVT injection, at 24 hours, vs vehicle IVT
[9] = ocular fluids, treated versus untreated eyes, any tested time point

With `CC(C)C[C@@H](NC(=O)[C@@H](Cc1ccccc1)NC(=O)[C@H]1CCCN1C(=O)[C@@H](CCC(N)=O)NC(=O)[C@H](NC(=O)[C@H]1CCCN1C(=O)[C@@H](CCCNC(=N)N)NC(=O)[C@@H](CO)NC(=O)[C@@H](CCC(N)=O)NC(=O)[C@H](N)CC(=O)O)C(C)C)C(=O)N[C@H](CC(N)=O)C(=O)N[C@H](CC(C)C)C(=O)N[C@@H](C(=O)N[C@@H](C(=O)N1CCC[C@@H]1C(=O)N[C@H](CCCNC(=N)N)C(=O)N[C@H](CCCCN)C(=O)N1CCC[C@@H]1C(=O)N[C@H](CCCNC(=N)N)C(=O)N1CCC[C@@H]1C(=O)N1CCC[C@@H]1C(=O)N[C@H](CCCNC(=N)N)C(=O)N[C@H](CCCNC(=N)N)C(=O)N[C@H](CCCNC(=N)N)C(=O)N[C@H](CCC(N)=O)C(=O)N[C@H](CCCNC(=N)N)C(=O)N[C@H](CCCNC(=N)N)C(=O)N[C@H](CCCCN)C(=O)N[C@H](CCCCN)C(=O)N[C@H](CCCNC(=N)N)C(=O)NCC(=O)O)[C@H](C)O)[C@H](C)O` [SEQ ID NO: 11] as the compound, how does the “effect on p-Erk1/2 signal in iris epithelium” value ([1]; iris) read?
The value was “no effect”.

And the “effect on p-Erk1/2 signal in retinal Müller glial (RMG) cells” value ([1]; neuroretina, IV or IVT)?
The value was “no effect”.

And the “distribution in ocular tissues (immunoreactivity)” value (“distribution in ocular tissues” below) ([2]; EIU eyes, 24 h after IV injection, occasional infiltrating inflammatory cells immunopositive)?
The value was “not detected in ocular tissues”.

And the “distribution in ocular tissues” value ([2]; healthy eyes, 24 h after IV injection, 20 μg/kg)?
Its value is “no signal was observed”.

And the “inflammatory cell infiltration in healthy eyes” value ([2]; healthy eyes, 24 h after IV or IVT)?
Its value is “No inflammatory cell infiltration was observed”.

What about the “distribution in ocular tissues” value ([2]; healthy eyes, 24 h after IVT injection, 0.2 μg/injection) of the same compound?
Its value is “distributed in almost all ocular tissues”.

What about the “distribution in ocular tissues” value ([2]; uveitic eyes, 24 h after IVT injection, also in mobilized resident cells (microglial)) of the same compound?
The value was “mostly found in ocular tissues like in healthy eyes”.

What about the “number of iNOS positive cells” value [3] of the same compound?
The value was “reduced”.

What about the MCP-1 level [4, 5] of the same compound?
The MCP-1 level was “significant reduction”.

And the MIP-1α level [4, 5]?
The MIP-1α level was “significant reduction”.

And the RANTES level [4, 5]?
Its RANTES level is “significant reduction”.

And the GRO/KC level ([4]; ocular fluids, IV injection, at 6 hours)?
Its GRO/KC level is “significantly reduced”.

What about the IL-10 level ([4]; ocular fluids, IV injection, at 6 hours, not significantly) of the same compound?
Its IL-10 level is “tended to increase”.

What about the IL-6 level [4, 6] of the same compound?
Its IL-6 level is “significantly reduced”.

What about the INF-γ level [4, 6] of the same compound?
The INF-γ level was “significantly reduced”.

What about the TNF-α level [4, 6] of the same compound?
The TNF-α level was “significantly reduced”.

What about the IL-2 level [4, 7] of the same compound?
Its IL-2 level is “a trend to a decrease”.

What about the IL-6 level [4, 7] of the same compound?
The IL-6 level was “a trend to a decrease”.

And the MCP-1 level [4, 7]?
Its MCP-1 level is “a trend to a decrease”.

And the TNF-α level [4, 7]?
The TNF-α level was “a trend to a decrease”.

What about the IL-2 level [4, 8] of the same compound?
The IL-2 level was “marked decrease”.

And the IL-13 level [4, 8]?
The IL-13 level was “increase”.

What about the IL-1β level [4, 9] of the same compound?
Its IL-1β level is “did not differ”.

And the IL-4 level [4, 9]?
Its IL-4 level is “did not differ”.

What about the IL-18 level [4, 9] of the same compound?
Its IL-18 level is “did not differ”.

And the “IL-2 level (tended to be reduced)” value ([4]; serum, IV administration)?
Its value is “not statistically significant”.

What about the “MIP-1α level (tended to be reduced)” value ([4]; serum, IV administration) of the same compound?
The value was “not statistically significant”.

And the “IL-2 level (tended to be reduced)” value ([4]; serum, IVT administration)?
Its value is “not statistically significant”.
